Test system: 958767-090-R-J1-PDC spheroid growth
Test: Anticancer human tumor 958767-090-R-J1-PDC patient-derived head and neck squamous carcinoma cell line growth inhibition [IpAb]
Details: spheroids with HUVEC and MSC; for IC50: curve of first compound; for viability, T/C: stronger effect = lower value
Method in brief: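 Spheroids of 60% malignant cells, 25% HUVEC and 15% MSC were exposed to targeted agents combined with ipatasertib or abemaciclib. Doses started at or near clinical Cmax (10 microM when unknown) and fell in half-log steps.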

[1] = second compound 0.1 µM, first compound 0.0316 µM
[2] = second compound 0.1 µM, first compound 0.1 µM
[3] = second compound 0.1 µM, first compound 0.316 µM
[4] = second compound 0.1 µM, first compound 1 µM
[5] = second compound 0.316 µM, first compound 0.0316 µM
[6] = second compound 0.316 µM, first compound 0.1 µM
[7] = second compound 0.316 µM, first compound 0.316 µM
[8] = second compound 0.316 µM, first compound 1 µM
[9] = second compound 1 µM, first compound 0.0316 µM
[10] = second compound 1 µM, first compound 0.1 µM
[11] = second compound 1 µM, first compound 0.316 µM
[12] = second compound 1 µM, first compound 1 µM
[13] = second compound 3.16 µM, first compound 0.0316 µM
[14] = second compound 3.16 µM, first compound 0.1 µM
[15] = second compound 3.16 µM, first compound 0.316 µM
[16] = second compound 3.16 µM, first compound 1 µM
[17] = second compound 10 µM, first compound 0.0316 µM
[18] = second compound 10 µM, first compound 0.1 µM
[19] = second compound 10 µM, first compound 0.316 µM
[20] = second compound 10 µM, first compound 1 µM
[21] = second compound 0.1 µM, first compound 3.16 µM
[22] = second compound 0.1 µM, first compound 10 µM
[23] = second compound 0.316 µM, first compound 3.16 µM
[24] = second compound 0.316 µM, first compound 10 µM
[25] = second compound 1 µM, first compound 3.16 µM
[26] = second compound 1 µM, first compound 10 µM
[27] = second compound 3.16 µM, first compound 3.16 µM
[28] = second compound 3.16 µM, first compound 10 µM
[29] = second compound 10 µM, first compound 3.16 µM
[30] = second compound 10 µM, first compound 10 µM
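Throughout, for viability, T/C: 100% = DMSO vehicle control wells.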

`CC(=O)c1c(C)c2cnc(Nc3ccc(N4CCNCC4)cn3)nc2n(C2CCCC2)c1=O` + CC(C)NCC(C(=O)N1CCN(c2ncnc3c2C(C)CC3O)CC1)c1ccc(Cl)cc1 showed an IC50 (second compound 0.1 µM) greater than 0.3 µM, an IC50 (second compound 0.316 µM) of 0.3 µM and an IC50 (second compound 1 µM) of less than 0.000949 µM. It also gave an IC50 (second compound 3.16 µM) of less than 0.000949 µM, an IC50 (second compound 10 µM) of less than 0.000949 µM and a viability, T/C (second compound 0.1 µM, first compound 0.000949 µM) of 83.8%. It also gave a viability, T/C (second compound 0.1 µM, first compound 0.003 µM) of 70.5%, a viability, T/C (second compound 0.1 µM, first compound 0.00949 µM) of 68.7% and a viability, T/C (second compound 0.1 µM, first compound 0.03 µM) of 67.7%. It also gave a viability, T/C (second compound 0.1 µM, first compound 0.0949 µM) of 53.4%, a viability, T/C (second compound 0.1 µM, first compound 0.3 µM) of 64.8% and a viability, T/C (second compound 0.316 µM, first compound 0.000949 µM) of 56.4%. The viability, T/C (second compound 0.316 µM, first compound 0.003 µM) was 65.3%, the viability, T/C (second compound 0.316 µM, first compound 0.00949 µM) was 54.2% and the viability, T/C (second compound 0.316 µM, first compound 0.03 µM) was 46.1%. The viability, T/C (second compound 0.316 µM, first compound 0.0949 µM) was 57.3%, the viability, T/C (second compound 0.316 µM, first compound 0.3 µM) was 52.5% and the viability, T/C (second compound 1 µM, first compound 0.000949 µM) was 48.1%. It also gave a viability, T/C (second compound 1 µM, first compound 0.003 µM) of 46.2%, a viability, T/C (second compound 1 µM, first compound 0.00949 µM) of 49.8% and a viability, T/C (second compound 1 µM, first compound 0.03 µM) of 41.8%. For the same compound, the viability, T/C (second compound 1 µM, first compound 0.0949 µM) was 47.2%, the viability, T/C (second compound 1 µM, first compound 0.3 µM) was 40.2% and the viability, T/C (second compound 3.16 µM, first compound 0.000949 µM) was 43.1%. It also gave a viability, T/C (second compound 3.16 µM, first compound 0.003 µM) of 43.6%, a viability, T/C (second compound 3.16 µM, first compound 0.00949 µM) of 39.1% and a viability, T/C (second compound 3.16 µM, first compound 0.03 µM) of 41.5%. For the same compound, the viability, T/C (second compound 3.16 µM, first compound 0.0949 µM) was 37.7%, the viability, T/C (second compound 3.16 µM, first compound 0.3 µM) was 31.2% and the viability, T/C (second compound 10 µM, first compound 0.000949 µM) was 41.4%. The viability, T/C (second compound 10 µM, first compound 0.003 µM) was 41.7%, the viability, T/C (second compound 10 µM, first compound 0.00949 µM) was 42.9% and the viability, T/C (second compound 10 µM, first compound 0.03 µM) was 35.5%. It also gave a viability, T/C (second compound 10 µM, first compound 0.0949 µM) of 30.7% and a viability, T/C (second compound 10 µM, first compound 0.3 µM) of 25%.
Compound `COc1c(OCCCN2CCOCC2)ccc2c3n(c(=NC(=O)c4cnc(N)nc4)nc12)CCN3` + CC(C)NCC(C(=O)N1CCN(c2ncnc3c2C(C)CC3O)CC1)c1ccc(Cl)cc1 has an IC50 (second compound 0.1 µM) of 0.0141 µM, an IC50 (second compound 0.316 µM) of 0.00443 µM and an IC50 (second compound 1 µM) of less than 0.00316 µM. It also gave an IC50 (second compound 3.16 µM) of less than 0.00316 µM, an IC50 (second compound 10 µM) of less than 0.00316 µM and a viability, T/C (second compound 0.1 µM, first compound 0.00316 µM) of 78%. The viability, T/C (second compound 0.1 µM, first compound 0.01 µM) was 55.2%, the viability, T/C [1] was 36.6% and the viability, T/C [2] was 22.6%. It also gave a viability, T/C [3] of 9.18%, a viability, T/C [4] of 4.85% and a viability, T/C (second compound 0.316 µM, first compound 0.00316 µM) of 52.9%. For the same compound, the viability, T/C (second compound 0.316 µM, first compound 0.01 µM) was 43.2%, the viability, T/C [5] was 25.7% and the viability, T/C [6] was 15.6%. It also gave a viability, T/C [7] of 6.21%, a viability, T/C [8] of 3.9% and a viability, T/C (second compound 1 µM, first compound 0.00316 µM) of 42.1%. The viability, T/C (second compound 1 µM, first compound 0.01 µM) was 32.6%, the viability, T/C [9] was 26.6% and the viability, T/C [10] was 15.5%. The viability, T/C [11] was 5.63%, the viability, T/C [12] was 3.82% and the viability, T/C (second compound 3.16 µM, first compound 0.00316 µM) was 41.7%. For the same compound, the viability, T/C (second compound 3.16 µM, first compound 0.01 µM) was 24.8%, the viability, T/C [13] was 20.9% and the viability, T/C [14] was 11.5%. It also gave a viability, T/C [15] of 6.46%, a viability, T/C [16] of 3.61% and a viability, T/C (second compound 10 µM, first compound 0.00316 µM) of 28.3%. For the same compound, the viability, T/C (second compound 10 µM, first compound 0.01 µM) was 19.8%, the viability, T/C [17] was 14.1% and the viability, T/C [18] was 9.67%. The viability, T/C [19] was 4.23% and the viability, T/C [20] was 3.22%.
With `Cc1nc(NC(=O)N2CCCC2C(N)=O)sc1-c1ccnc(C(C)(C)C(F)(F)F)c1` (stereo not given) + CC(C)NCC(C(=O)N1CCN(c2ncnc3c2C(C)CC3O)CC1)c1ccc(Cl)cc1 the IC50 (second compound 0.1 µM) was 0.136 µM, the IC50 (second compound 0.316 µM) was 0.0635 µM and the IC50 (second compound 1 µM) was less than 0.0316 µM. For the same compound, the IC50 (second compound 3.16 µM) was less than 0.0316 µM, the IC50 (second compound 10 µM) was less than 0.0316 µM and the viability, T/C [1] was 72.7%. It also gave a viability, T/C [2] of 49.6%, a viability, T/C [3] of 38.1% and a viability, T/C [4] of 34.2%. It also gave a viability, T/C [21] of 20.7%, a viability, T/C [22] of 12.2% and a viability, T/C [5] of 54.4%. For the same compound, the viability, T/C [6] was 49.1%, the viability, T/C [7] was 32.3% and the viability, T/C [8] was 26.7%. It also gave a viability, T/C [23] of 16.2%, a viability, T/C [24] of 11.1% and a viability, T/C [9] of 46.6%. The viability, T/C [10] was 32.7%, the viability, T/C [11] was 30.9% and the viability, T/C [12] was 20.9%. For the same compound, the viability, T/C [25] was 15.6%, the viability, T/C [26] was 9.52% and the viability, T/C [13] was 38.4%. For the same compound, the viability, T/C [14] was 28.4%, the viability, T/C [15] was 24.2% and the viability, T/C [16] was 18.3%. It also gave a viability, T/C [27] of 14.4%, a viability, T/C [28] of 7.8% and a viability, T/C [17] of 31.6%. It also gave a viability, T/C [18] of 24.6%, a viability, T/C [19] of 16.5% and a viability, T/C [20] of 10.8%. The viability, T/C [29] was 9.96% and the viability, T/C [30] was 5.52%.
With `Cn1nccc1Nc1nccc(-c2ccn(C(CO)c3ccc(Cl)c(F)c3)c(=O)c2)n1` (stereo not given) + CC(C)NCC(C(=O)N1CCN(c2ncnc3c2C(C)CC3O)CC1)c1ccc(Cl)cc1 the IC50 (second compound 0.1 µM) was 0.495 µM, the IC50 (second compound 0.316 µM) was 0.137 µM and the IC50 (second compound 1 µM) was 0.064 µM. For the same compound, the IC50 (second compound 3.16 µM) was 0.0385 µM, the IC50 (second compound 10 µM) was less than 0.0316 µM and the viability, T/C [1] was 86.8%. The viability, T/C [2] was 65.5%, the viability, T/C [3] was 56.1% and the viability, T/C [4] was 43.7%. The viability, T/C [21] was 28.2%, the viability, T/C [22] was 13.4% and the viability, T/C [5] was 66.5%. It also gave a viability, T/C [6] of 46.4%, a viability, T/C [7] of 44.6% and a viability, T/C [8] of 32.8%. The viability, T/C [23] was 17.7%, the viability, T/C [24] was 5.2% and the viability, T/C [9] was 54.1%. For the same compound, the viability, T/C [10] was 47.9%, the viability, T/C [11] was 36.1% and the viability, T/C [12] was 23.1%. It also gave a viability, T/C [25] of 13.2%, a viability, T/C [26] of 3.79% and a viability, T/C [13] of 53.6%. It also gave a viability, T/C [14] of 37.1%, a viability, T/C [15] of 27.8% and a viability, T/C [16] of 19.4%. The viability, T/C [27] was 10.4%, the viability, T/C [28] was 4.11% and the viability, T/C [17] was 44.7%. The viability, T/C [18] was 35%, the viability, T/C [19] was 24.1% and the viability, T/C [20] was 15.2%. For the same compound, the viability, T/C [29] was 8.11% and the viability, T/C [30] was 3.09%.

Reference: PubChem BioAssay AID2060336 (Molecular Pharmacology Branch, DTP, NCI, 2025)
